Earlier results on 1 compound are cited in patent US5047425A, “Amine derivatives having cardiovascular activity” (Simes Societa Italiana Medicinali & Sintetici SpA, priority 1987, dated 1991).

For this data set the following is noted: literature: McKenna 1966; Whitsitt 1967; cited from earlier work.

For the compound `CC(C)NCC(O)COc1cccc2ccccc12` (centres unmarked) [Propranolol], the “cardiac output” value was “depresses at the same time the cardiac output”; the “coronary flow” value was “depresses at the same time the cardiac output and the coronary flow”.
